The values below come from patent publication EP1594520B1, “USE OF BRADYKININ-B2 RECEPTOR ANTAGONISTS FOR TREATING OSTEOARTHROSIS” (Sanofi-Aventis Deutschland GmbH, priority 2003, dated 2006).

The assay concerns SW1353 Zellen. In words: MMP-3 release from IL-1 stimulated SW1353 chondrosarcoma cells (MMP3 ELISA of the culture supernatant). In kind it is cell-based. As to the method:
Für die Analyse der krankheitsmodifizierenden Wirkung von HOE140 in einem Knorpelrelevanten Zellkulturmodel wurde die MMP3 Expression in der Chondrosarcom Zellline SW1353 (ATCC: HTB 94) analysiert. Für die Versuche wurden SW1353 Zellen unter Standard Bedingungen (37°C, 5% CO2) in DMEM-Glutamax mit 10% Fötalem Kälberserum (FKS) in Plastikkulturflaschen kultiviert. Nach ab-trypsinieren der Zellen wurden 50.000 Zellen je well einer 96-well Flachboden Platte in Medium ohne FKS ausgesät und mit der Verbindung HOE140 im Inkubator vorinkubiert. […] Nach 24 Stunden Inkubation unter Standardbedingungen wurde der Zellkulturüberstand abgenommen, 5 Minuten zentrifugiert und bei -20 °C bis zur weiteren Analyse eingefroren. Die Analyse der MMP3 Expression in den Zellkulturüberständen erfolgt dann mittels eines kommerziellen MMP3 ELISA Testsystems (Amersham) nach Angaben des Herstellers. Parallel dazu wurde mit den verbleibenden Zellen ein WST-Zytotoxizitätstest durchgeführt. Dazu wurde das kommerzielle Testsystem der Firma Roche verwendet und die Messung nach Angaben des Herstellerprotokolls durchgeführt.
Die nachfolgende Tabelle 1 zeigt die Ergebnisse. Bradykinin erhöht die MMP3 Freisetzung um mehr als 30%. […] Tabelle 1 MMP-3 Freisetzung aus SW-Zellen

For “Bradykinin: natürlich vorkommendes Nonapeptid, das einige pharmakologische Effekte aufweist, die zu Entzündungen und Schmerzen führen (RPPGFSPFR; Bradykinin; UniProt P01042 381-389, looked up) [reference compound]”, where the note is “Bradykinin added to IL1-stimulated SW cells”, the “Erhöhung der MMP3 Freisetzung” value is greater than 30%. Moreover, for the setting “IL1α + Bradykinin (0,1 µM), no antagonist”, the “MMP-3 Freisetzung MW (OD450nm)” value was 433 OD450nm. Besides, where the note is “IL1α + Bradykinin (0,1 µM), no antagonist, IL1α (0,05 ng/ml) alone = 100”, the “Relativwerte bezogen auf Ausgangswert” value is 132,0.

“D-Arginyl-L-arginyl-L-prolyl-L-prolylglycyl-3-(2-thienyl)-L-alanyl-L-seryl-(3R)-1,2,3,4-tetrahydro-3-isochinolincarbonyl-(2S,3aS,7aS)-octahydro-1H-indol-2-carbonyl-L-arginin [HOE140]”: the “MMP-3 Freisetzung MW (OD450nm)” value runs as follows: (IL1α + Bradykinin (0,1 µM) + 0,1 µM HOE140) 371 OD450nm; (IL1α + Bradykinin (0,1 µM) + 0,05 µM HOE140) 458 OD450nm; (IL1α + Bradykinin (0,1 µM) + 0,5 µM HOE140) 309 OD450nm; (IL1α + Bradykinin (0,1 µM) + 1 µM HOE140) 306 OD450nm. Further, the “Relativwerte bezogen auf Ausgangswert” value reads like this: (IL1α + Bradykinin (0,1 µM) + 0,1 µM HOE140, IL1α alone = 100) 113,1; (IL1α + Bradykinin (0,1 µM) + 0,05 µM HOE140, IL1α alone = 100) 139,6; (IL1α + Bradykinin (0,1 µM) + 0,5 µM HOE140, IL1α alone = 100) 94,2; (IL1α + Bradykinin (0,1 µM) + 1 µM HOE140, IL1α alone = 100) 93,3. For the same substance, under “IL1α + Bradykinin (0,1 µM), 0,05 to 1 µM HOE140”, the “Hemmung der durch Bradykinin erhöhten Freisetzung von MMP 3” value is listed as “dosis-abhängig gehemmt”.
